Measurements reported in article PMC10721329, “Quisinostat is a brain-penetrant radiosensitizer in glioblastoma” (JCI Insight, 2023).
Where “and” joins values, the source holds several entries; their conditions need not be identical. Equal values may be shown once.

How the values were obtained:
[1] = tested on: 7 patient-derived GSC lines and U87; experiment: Dose-titration cell viability assay, whole panel; type: cell-based; conditions: Homo sapiens; 7 GSC lines and U87; 3-5 days; read-out: cellular IC50 in all lines
Method: QST (JNJ-26481585) is a second-generation hydroxamic acid harboring remarkable selectivity toward class I HDACs, with a biochemical IC50 of 0.1 nM for HDAC1 ([13]). […] To determine the cytotoxic effects of QST, we performed a dose-titration cell viability assay in 7 patient-derived GSC lines (BT145, GB187, GB239, GB282, GB71, GB82, and GB126) and 1 long-term serum-grown human GBM cell line (U87). Because GBMs display a high degree of intratumoral heterogeneity, we used GSCs derived from both primary and recurrent GBMs that harbored distinct genetic mutations or aberrations, growth rates, MGMT promoter methylation status, and gene expression profiles (Supplemental Figure 1; supplemental material available online with this article; https://doi.org/10.1172/jci.insight.167081DS1). Cell lines were treated with various concentrations of QST (10–1000 nM), and cell viability was measured 3–5 days later (Figure 1, A and B). […]
GSCs were seeded in laminin-coated tissue culture–treated 96-well plates (clear bottom, white plate; Corning) at a density of 1000–5000 cells per well (cell line dependent) in GSC media. […] Following treatment with QST, cells were grown for 3 to 5 days (cell line dependent), and cell viability was measured and quantified. […]

BT145 cells = experiment: QST + IR sulforhodamine B cytotoxicity assay; type: cell-based, human; conditions: replicates
Method: (§1) There is preclinical evidence that HDACis may be effective in enhancing the sensitivity of tumor cells to IR therapy ([24], [28]–[31]). We hypothesized that the accumulation of DNA damage induced by QST, in combination with IR, may synergistically reduce GSC viability. To examine this hypothesis, we treated 2 cell lines (BT145 and GB126) with increasing nanomolar doses of QST (10–1000 nM) and increasing doses of IR (2–4 Gy) (Figure 4, A and B). […] We then analyzed our combinatorial dose-response cell viability data using SynergyFinder, an application that assigns synergy scores using various major reference models ([32]).
(§2) GSCs were seeded in laminin-coated tissue culture–treated 96-well plates (clear bottom, white plate; Corning) at a density of 1000–5000 cells per well (cell line dependent) in GSC media. U87-MG were seeded using their normal growth conditions without laminin (10% bovine calf serum in DMEM). All cells were incubated at 37°C and allowed to adhere overnight. The next day, cells were treated with incremental concentrations of QST (Selleckchem; 0, 10, 25, 50, 100, 250, 500, and 1000 nM) diluted in media. Cells treated without QST were treated with DMSO diluted in media. Following treatment with QST, cells were grown for 3 to 5 days (cell line dependent), and cell viability was measured and quantified. All cell viability measurements were performed using the CellTiter-Glo luminescent cell viability assay (Promega) following the manufacturer’s instructions. For the sulforhodamine B colorimetric assay for cytotoxicity, the protocol was performed as described elsewhere ([33]). All cell viability results represent the mean of at least 3 biological replicates, each containing 3 technical replicates.

GB126 cells = experiment: QST + IR sulforhodamine B cytotoxicity assay; type: cell-based, human; conditions: replicates
Method: as §1, §2

[2] = Quisinostat log[nm] 1, 0 Gy, control 0 Gy = 1
[3] = Quisinostat log[nm] 1.39794, 0 Gy
[4] = Quisinostat log[nm] 1.39794, 2 Gy
[5] = Quisinostat log[nm] 1.39794, 4 Gy
[6] = Quisinostat log[nm] 1.69897, 0 Gy
[7] = Quisinostat log[nm] 1.69897, 2 Gy
[8] = Quisinostat log[nm] 1.69897, 4 Gy

SMILES: Cn1cc(CNCC2CCN(c3ncc(C(=O)NO)cn3)CC2)c2ccccc21 [QST, quisinostat]
- IC50 [1]: 50 to 100 nM
- SRB assay, relative signal (BT145 cells; [2]): 0.6967 and 0.6385 and 0.6781
- SRB assay, relative signal (BT145 cells; Quisinostat log[nm] 1, 2 Gy): 0.3422 and 0.2636 and 0.3938
- SRB assay, relative signal (BT145 cells; Quisinostat log[nm] 1, 4 Gy): 0.2576 and 0.2273 and 0.1797
- SRB assay, relative signal (BT145 cells; [3]): 0.5611 and 0.5715 and 0.6072
- SRB assay, relative signal (BT145 cells; [4]): 0.3016 and 0.237 and 0.3379
- SRB assay, relative signal (BT145 cells; [5]): 0.251 and 0.1999 and 0.186
- SRB assay, relative signal (BT145 cells; [6]): 0.3909 and 0.4995 and 0.4801
- SRB assay, relative signal (BT145 cells; [7]): 0.2862 and 0.2318 and 0.3442
- SRB assay, relative signal (BT145 cells; [8]): 0.2294 and 0.2058 and 0.1789
- SRB assay, relative signal (BT145 cells; Quisinostat log[nm] 2, 0 Gy): 0.4525 and 0.4659 and 0.3488
- SRB assay, relative signal (BT145 cells; Quisinostat log[nm] 2, 2 Gy): 0.304 and 0.2255 and 0.2864
- SRB assay, relative signal (BT145 cells; Quisinostat log[nm] 2, 4 Gy): 0.2104 and 0.1978 and 0.1926
- SRB assay, relative signal (GB126 cells; [2]): 0.6958 and 0.7271 and 0.697
- SRB assay, relative signal (GB126 cells; Quisinostat log[nm] 1, 2 Gy): 0.4678 and 0.5322 and 0.5047
- SRB assay, relative signal (GB126 cells; Quisinostat log[nm] 1, 4 Gy): 0.3918 and 0.337 and 0.3993
- SRB assay, relative signal (GB126 cells; [3]): 0.6332 and 0.6836 and 0.5963
- SRB assay, relative signal (GB126 cells; [4]): 0.4122 and 0.4783 and 0.4726
- SRB assay, relative signal (GB126 cells; [5]): 0.3723 and 0.2821 and 0.3826
- SRB assay, relative signal (GB126 cells; [6]): 0.574 and 0.5854 and 0.5737
- SRB assay, relative signal (GB126 cells; [7]): 0.3752 and 0.4419 and 0.4352
- SRB assay, relative signal (GB126 cells; [8]): 0.3383 and 0.2983 and 0.3763
- SRB assay, relative signal (GB126 cells; Quisinostat log[nm] 2, 0 Gy): 0.4806 and 0.4569 and 0.5515
- SRB assay, relative signal (GB126 cells; Quisinostat log[nm] 2, 2 Gy): 0.3411 and 0.3753 and 0.4318
- SRB assay, relative signal (GB126 cells; Quisinostat log[nm] 2, 4 Gy): 0.3084 and 0.2397 and 0.3383
